Measurements: patent US9643970B2, “Substituted imidazo [1,5-a]pyrazines as PDE9 inhibitors” (H Lundbeck A/S, priority 2012, dated 2017)
Where two headings read alike, the source gives them in different places.

Target: PDE9 (Homo sapiens, UniProt O76083)
Experiment: PDE9 inhibition assay
Format: biochemical
Method: Reactions are initiated by addition of the cyclic nucleotide substrate, and reactions are allowed to proceed for one hr at room temperature before being terminated through mixing with 15 uL 8 mg/mL yttrium silicate SPA beads (Amersham). […] IC50 values were calculated by non linear regression using XLfit (IDBS).

[1] = SPA assay, 10 nM 3H-cAMP, 1 hour incubation, read-out: IC50

Sequence of PDE9 (O76083 whole entry): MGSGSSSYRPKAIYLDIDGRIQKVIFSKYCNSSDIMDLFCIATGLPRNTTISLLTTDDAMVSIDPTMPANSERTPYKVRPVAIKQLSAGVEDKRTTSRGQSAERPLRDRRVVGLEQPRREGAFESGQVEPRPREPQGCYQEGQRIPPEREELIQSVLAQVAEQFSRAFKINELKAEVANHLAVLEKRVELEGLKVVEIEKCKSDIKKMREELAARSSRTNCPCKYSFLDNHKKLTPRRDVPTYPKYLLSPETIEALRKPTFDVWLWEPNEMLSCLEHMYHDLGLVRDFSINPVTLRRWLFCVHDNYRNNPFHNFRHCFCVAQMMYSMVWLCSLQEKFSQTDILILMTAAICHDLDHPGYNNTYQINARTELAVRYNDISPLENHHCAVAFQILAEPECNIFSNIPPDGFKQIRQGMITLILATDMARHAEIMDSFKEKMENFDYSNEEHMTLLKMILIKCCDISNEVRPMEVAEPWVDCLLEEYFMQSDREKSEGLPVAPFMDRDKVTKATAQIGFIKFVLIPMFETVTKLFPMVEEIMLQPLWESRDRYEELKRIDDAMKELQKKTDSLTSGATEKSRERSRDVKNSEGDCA

COC1CN(C(c2ccccc2)c2cn3c(-c4ccccc4)ncc3c(=O)[nH]2)C1 (stereo not shown) [Compound 22, 6-[(3-methoxyazetidin-1-yl)-phenyl-methyl]-3-phenyl-7h-imidazo[1,5-a]pyrazin-8-one]
IC50: 37 nM

O=c1[nH]c(CN2CC(Oc3ccccc3)C2)cn2c(-c3ccccc3)ncc12 [Compound 21, 6-[(3-phenoxyazetidin-1-yl)methyl]-3-phenyl-7h-imidazo[1,5-a]pyrazin-8-one]
IC50 [1]: 8 nM

Cc1ccnc(C2CN(C(C)c3cn4c(-c5ccccc5)ncc4c(=O)[nH]3)C2)c1 (stereo not shown) [Compound 29, 6-[1-[3-(4-methyl-2-pyridyl)azetidin-1-yl]ethyl]-3-phenyl-7h-imidazo[1,5-a]pyrazin-8-one]
IC50: 20 nM

CN(C)c1ccc(C2CN(Cc3cn4c(-c5ccc(F)cc5)ncc4c(=O)[nH]3)C2)cc1 [Compound 51, 6-[[3-(4-dimethylaminophenyl)azetidin-1-yl]methyl]-3-(4-fluorophenyl)-7h-imidazo[1,5-a]pyrazin-8-one]
IC50 [1]: 7 nM

CC(c1cn2c(-c3ccccc3)ncc2c(=O)[nH]1)N1CC(Oc2cnccn2)C1 (stereo not shown) [Compound 15, 3-phenyl-6-[1-(3-pyrazin-2-yloxyazetidin-1-yl)ethyl]-7h-imidazo[1,5-a]pyrazin-8-one]
IC50 [1]: 40 nM

CC1CN(Cc2ccc(C#N)cc2)CC1c1cn2c(C3CCOCC3)ncc2c(=O)[nH]1 (stereo not shown) [Compound 98, 4-[[3-methyl-4-(8-oxo-3-tetrahydropyran-4-yl-7h-imidazo[1,5-a]pyrazin-6-yl)pyrrolidin-1-yl]methyl]benzonitrile]
IC50 [1]: 18 nM

O=c1[nH]c(CN2CC(Oc3cnc4ccccc4n3)C2)cn2c(C3CCOCC3)ncc12 [Compound 72, 6-[(3-quinoxalin-2-yloxyazetidin-1-yl)methyl]-3-tetrahydropyran-4-yl-7h-imidazo[1,5-a]pyrazin-8-one]
IC50 [1]: 139 nM

COc1ccc(C2CN(Cc3cn4c(C5CCCC5)ncc4c(=O)[nH]3)C2)cc1 [Compound 41, 3-cyclopentyl-6-[[3-(4-methoxyphenyl)azetidin-1-yl]methyl]-7h-imidazo[1,5-a]pyrazin-8-one]
IC50 [1]: 26 nM

O=c1[nH]c(CN2CC(c3ncccn3)C2)cn2c(C3CCOCC3)ncc12 [Compound 54, 6-[(3-pyrimidin-2-ylazetidin-1-yl)methyl]-3-tetrahydropyran-4-yl-7h-imidazo[1,5-a]pyrazin-8-one]
IC50 [1]: 102 nM

O=c1[nH]c(CN2CC(c3ccc(C(F)(F)F)cn3)C2)cn2c(C3CCOCC3)ncc12 [Compound 70, 3-tetrahydropyran-4-yl-6-[[3-[5-(trifluoromethyl)-2-pyridyl]azetidin-1-yl]methyl]-7h-imidazo[1,5-a]pyrazin-8-one]
IC50: 10 nM

Cc1cnc(CN2CC(C)C(c3cn4c(C5CCOCC5)ncc4c(=O)[nH]3)C2)cn1 (stereo not shown) [Compound 102, 6-[4-methyl-1-[(5-methylpyrazin-2-yl)methyl]pyrrolidin-3-yl]-3-tetrahydropyran-4-yl-7h-imidazo[1,5-a]pyrazin-8-one]
IC50 [1]: 10 nM

CC(C)COC1CN(Cc2cn3c(C4CCCC4)ncc3c(=O)[nH]2)C1 [Compound 58, 3-cyclopentyl-6-[(3-isobutoxyazetidin-1-yl)methyl]-7h-imidazo[1,5-a]pyrazin-8-one]
IC50: 4 nM

CC1CN(CC2CCCCC2)CC1c1cn2c(C3CCOCC3)ncc2c(=O)[nH]1 (stereo not shown) [Compound 115, 6-[1-(cyclohexylmethyl)-4-methyl-pyrrolidin-3-yl]-3-tetrahydropyran-4-yl-7h-imidazo[1,5-a]pyrazin-8-one]
IC50 [1]: 37 nM

COc1ccc(CN2CC(C)C(c3cn4c(C5CCOCC5)ncc4c(=O)[nH]3)C2)cn1 (stereo not shown) [Compound 101, 6-[1-[(6-methoxy-3-pyridyl)methyl]-4-methyl-pyrrolidin-3-yl]-3-tetrahydropyran-4-yl-7h-imidazo[1,5-a]pyrazin-8-one]
IC50 [1]: 18 nM

O=c1[nH]c(CN2CC(c3ccccc3)C2)cn2c(-c3ccccc3)ncc12 [Compound 8, 3-phenyl-6-[(3-phenylazetidin-1-yl)methyl]-7h-imidazo[1,5-a]pyrazin-8-one]
IC50 [1]: 78 nM

O=c1[nH]c(CN2CCC(Nc3ccccc3)C2)cn2c(C3CCOCC3)ncc12 (stereo not shown) [Compound 66, 6-[(3-anilinopyrrolidin-1-yl)methyl]-3-tetrahydropyran-4-yl-7h-imidazo[1,5-a]pyrazin-8-one]
IC50 [1]: 15 nM

O=c1[nH]c(CN2CC(OCc3ccccc3)C2)cn2c(C3CCOCC3)ncc12 [Compound 67, 6-[(3-benzyloxyazetidin-1-yl)methyl]-3-tetrahydropyran-4-yl-7h-imidazo[1,5-a]pyrazin-8-one]
IC50 [1]: 20 nM

CC(c1cn2c(-c3ccccc3)ncc2c(=O)[nH]1)N1CC(Oc2cccc(F)n2)C1 (stereo not shown) [Compound 27, 6-[1-[3-[(6-fluoro-2-pyridyl)oxy]azetidin-1-yl]ethyl]-3-phenyl-7h-imidazo[1,5-a]pyrazin-8-one]
IC50 [1]: 38 nM

O=c1[nH]c(CN2CC(Oc3cnc4ccccc4n3)C2)cn2c(-c3ccccc3)ncc12 [Compound 13, 3-phenyl-6-[(3-quinoxalin-2-yloxyazetidin-1-yl)methyl]-7h-imidazo[1,5-a]pyrazin-8-one]
IC50 [1]: 7 nM

CN(Cc1ccccc1)Cc1cn2c(-c3ccccc3)ncc2c(=O)[nH]1 [Compound 9, 6-[[benzyl(methyl)amino]methyl]-3-phenyl-7h-imidazo[1,5-a]pyrazin-8-one]
IC50 [1]: 156 nM

O=c1[nH]c(CN2CC(Oc3cnccn3)C2)cn2c(-c3ccccc3)ncc12 [Compound 4, 3-phenyl-6-[(3-pyrazin-2-yloxyazetidin-1-yl)methyl]-7h-imidazo[1,5-a]pyrazin-8-one]
IC50: 32 nM

CC(c1cn2c(-c3ccc(F)cc3)ncc2c(=O)[nH]1)N1CC(c2ccc(F)cc2)C1 (stereo not shown) [Compound 124, 3-(4-fluorophenyl)-6-[1-[3-(4-fluorophenyl)azetidin-1-yl]ethyl]-7h-imidazo[1,5-a]pyrazin-8-one]
IC50 [1]: 72 nM

O=c1[nH]c(CN2CC(Oc3cccc(F)n3)C2)cn2c(C3CCOCC3)ncc12 [Compound 65, 6-[[3-[(6-fluoro-2-pyridyl)oxy]azetidin-1-yl]methyl]-3-tetrahydropyran-4-yl-7h-imidazo[1,5-a]pyrazin-8-one]
IC50 [1]: 91 nM

O=c1[nH]c(CN2CC(Oc3ccc(Cl)cc3)C2)cn2c(-c3ccc(F)cc3)ncc12 [Compound 118, 6-[[3-(4-chlorophenoxy)azetidin-1-yl]methyl]-3-(4-fluorophenyl)-7h-imidazo[1,5-a]pyrazin-8-one]
IC50 [1]: 42 nM

CN(C)c1ccc(C2CN(Cc3cn4c(C5CCCC5)ncc4c(=O)[nH]3)C2)cc1 [Compound 48, 3-cyclopentyl-6-[[3-(4-dimethylaminophenyl)azetidin-1-yl]methyl]-7h-imidazo[1,5-a]pyrazin-8-one]
IC50 [1]: 40 nM

COc1ccc(C2CN(C(C)c3cn4c(-c5ccccc5)ncc4c(=O)[nH]3)C2)cc1 (stereo not shown) [Compound 34, 6-[1-[3-(4-methoxyphenyl)azetidin-1-yl]ethyl]-3-phenyl-7h-imidazo[1,5-a]pyrazin-8-one]
IC50 [1]: 66 nM

CC1CN(Cc2ccccc2)CC1c1cn2c(-c3ccccc3)ncc2c(=O)[nH]1 (stereo not shown) [Compound 31, 6-(1-benzyl-4-methyl-pyrrolidin-3-yl)-3-phenyl-7h-imidazo[1,5-a]pyrazin-8-one]
IC50 [1]: 33 nM

Cc1nc2ccccc2nc1OC1CN(Cc2cn3c(C4CCCC4)ncc3c(=O)[nH]2)C1 [Compound 46, 3-cyclopentyl-6-[[3-(3-methylquinoxalin-2-yl)oxyazetidin-1-yl]methyl]-7h-imidazo[1,5-a]pyrazin-8-one]
IC50 [1]: 6 nM

O=c1[nH]c(CN2CC(c3ccccn3)C2)cn2c(-c3ccccc3)ncc12 [Compound 37, 3-phenyl-6-[[3-(2-pyridyl)azetidin-1-yl]methyl]-7h-imidazo[1,5-a]pyrazin-8-one]
IC50 [1]: 29 nM

CC1CN(Cc2ccccn2)CC1c1cn2c(C3CCOCC3)ncc2c(=O)[nH]1 (stereo not shown) [Compound 81, 6-[4-methyl-1-(2-pyridylmethyl)pyrrolidin-3-yl]-3-tetrahydropyran-4-yl-7h-imidazo[1,5-a]pyrazin-8-one]
IC50 [1]: 19 nM

O=c1[nH]c(CN2CC(Oc3ncccn3)C2)cn2c(C3CCCC3)ncc12 [Compound 39, 3-cyclopentyl-6-[(3-pyrimidin-2-yloxyazetidin-1-yl)methyl]-7h-imidazo[1,5-a]pyrazin-8-one]
IC50 [1]: 22 nM

CC1CN(Cc2ccc3nccnc3c2)CC1c1cn2c(C3CCOCC3)ncc2c(=O)[nH]1 (stereo not shown) [Compound 97, 6-[4-methyl-1-(quinoxalin-6-ylmethyl)pyrrolidin-3-yl]-3-tetrahydropyran-4-yl-7h-imidazo[1,5-a]pyrazin-8-one]
IC50 [1]: 4 nM

CCc1ccc(C2CN(Cc3cn4c(C5CCOCC5)ncc4c(=O)[nH]3)C2)cc1 [Compound 78, 6-[[3-(4-ethylphenyl)azetidin-1-yl]methyl]-3-tetrahydropyran-4-yl-7h-imidazo[1,5-a]pyrazin-8-one]
IC50 [1]: 6 nM

CC(NCC1CCCCC1)c1cn2c(-c3ccccc3)ncc2c(=O)[nH]1 (stereo not shown) [Compound 2, 6-[1-(cyclohexylmethylamino)ethyl]-3-phenyl-7h-imidazo[1,5-a]pyrazin-8-one]
IC50 [1]: 187 nM

N#Cc1ccc(C2CN(Cc3cn4c(-c5ccccc5)ncc4c(=O)[nH]3)C2)cc1 [Compound 35, 4-[1-[(8-oxo-3-phenyl-7h-imidazo[1,5-a]pyrazin-6-yl)methyl]azetidin-3-yl]benzonitrile]
IC50 [1]: 49 nM

CC(c1cn2c(-c3ccccc3)ncc2c(=O)[nH]1)N1CC(c2ccc(F)cc2)C1 (stereo not shown) [Compound 28, 6-[1-[3-(4-fluorophenyl)azetidin-1-yl]ethyl]-3-phenyl-7h-imidazo[1,5-a]pyrazin-8-one]
IC50 [1]: 53 nM

COC1CN(C(C)C2(C)Cn3c(cnc3C3CCOCC3)C(=O)N2)C1 (stereo not shown) [Compound 112, 6-[1-(3-methoxyazetidin-1-yl)ethyl]-6-methyl-3-tetrahydropyran-4-yl-7h-imidazo[1,5-a]pyrazin-8-one]
IC50 [1]: 22 nM
